Laboratory results as given in ChEMBL document CHEMBL5360586, “Purpurascenines A-C, Azepino-Indole Alkaloids from Cortinarius purpurascens: Isolation, Biosynthesis, and Activity Studies on the 5-HT2A Receptor” (J Nat Prod, 2023).
The source made the active and inactive calls. The calls are words filed in the database; no cut-off is given here.

Legend:
PC-3 [1] = test: Antiproliferative activity against human PC-3 cells assessed as inhibition of cell growth measured after 48 hrs by resazurin staining based analysis; format: functional; settings: PC-3, 48 h
[2] = target: T1, 5-hydroxytryptamine receptor 2A (Homo sapiens, UniProt P28223); test: Agonist activity at N-terminal HA-tagged human 5HT2A receptor transfected in CHO-K1 cells co-expressing C-terminal EYFP assessed as maximal efficacy at 10^-11 M to 10^-5 M measured for 5.5 hrs by ONE-Glo reagent based luciferase assay relative to control; format: functional, cell-based
[3] = target: T1, 5-hydroxytryptamine receptor 2A; test: Agonist activity at N-terminal HA-tagged human 5HT2A receptor transfected in CHO-K1 cells co-expressing C-terminal EYFP measured for 5.5 hrs by ONE-Glo reagent based luciferase assay; format: functional, cell-based
[4] = target: T1, 5-hydroxytryptamine receptor 2A; test: Agonist activity at N-terminal HA-tagged human 5HT2A receptor transfected in CHO-K1 cells co-expressing C-terminal EYFP assessed as maximal efficacy at 10^-4 M measured for 5.5 hrs in presence of serotonin by ONE-Glo reagent based luciferase assay; format: functional, cell-based; settings: filed as agonist, dose 0.0001 M
[5] = target: T1, 5-hydroxytryptamine receptor 2A; test: Agonist activity at N-terminal HA-tagged human 5HT2A receptor transfected in CHO-K1 cells co-expressing C-terminal EYFP measured for 5.5 hrs in presence of serotonin by ONE-Glo reagent based luciferase assay; format: functional, cell-based
HCT-116 [6] = test: Antiproliferative activity against human HCT-116 cells assessed as inhibition of cell growth measured after 48 hrs by resazurin staining based analysis; format: functional; settings: HCT-116, 48 h
PC-3 [7] = test: Antiproliferative activity against human PC-3 cells assessed as inhibition of cell growth at 100 uM measured after 48 hrs by resazurin staining based analysis; format: functional; parameters: scale not given: the % may be the effect or the level left
MCF7 [8] = test: Antiproliferative activity against human MCF7 cells assessed as inhibition of cell growth measured after 48 hrs by resazurin staining based analysis; format: functional; settings: MCF7, 48 h
HCT-116 [9] = test: Antiproliferative activity against human HCT-116 cells assessed as inhibition of cell growth upto 100 uM measured after 48 hrs by resazurin staining based analysis; format: functional
PC-3 [10] = test: Antiproliferative activity against human PC-3 cells assessed as inhibition of cell growth upto 100 uM measured after 48 hrs by resazurin staining based analysis; format: functional
MCF7 [11] = test: Antiproliferative activity against human MCF7 cells assessed as inhibition of cell growth upto 100 uM measured after 48 hrs by resazurin staining based analysis; format: functional

T1 sequence (P28223 whole entry): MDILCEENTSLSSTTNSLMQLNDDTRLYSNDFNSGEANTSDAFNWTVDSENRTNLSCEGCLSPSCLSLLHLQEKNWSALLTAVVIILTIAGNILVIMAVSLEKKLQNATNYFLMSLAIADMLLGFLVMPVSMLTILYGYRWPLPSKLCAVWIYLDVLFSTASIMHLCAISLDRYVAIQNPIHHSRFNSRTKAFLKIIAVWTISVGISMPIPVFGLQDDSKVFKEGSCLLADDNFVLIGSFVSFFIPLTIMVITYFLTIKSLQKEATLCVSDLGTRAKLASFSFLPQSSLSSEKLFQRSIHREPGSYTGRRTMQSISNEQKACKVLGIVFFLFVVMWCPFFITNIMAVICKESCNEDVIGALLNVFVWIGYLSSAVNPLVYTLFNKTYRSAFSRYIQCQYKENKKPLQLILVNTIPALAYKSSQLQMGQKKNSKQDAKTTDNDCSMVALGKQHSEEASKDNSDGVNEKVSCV

Q: With `CC1=N[C@H](C(=O)O)Cc2c[nH]c3c(O)ccc1c23` as the compound, how does the IC50 (PC-3 [1]) read?
A: > 100 µM

Q: And the Emax [2]?
A: 22%

Q: And the EC50 [3]?
A: > 10 µM

Q: What about the Emax [4] of the same compound?
A: 52%

Q: And the EC50 [5]?
A: 25.4 nM

Q: What about the IC50 (HCT-116 [6]) of the same compound?
A: > 100 µM

Q: And the Activity (PC-3 [7])?
A: ~30%

Q: And the IC50 (MCF7 [8])?
A: > 100 µM

Q: For `NCCc1c[nH]c2ccc(O)cc12`, which Activity (HCT-116 [9]) is on record?
A: inactive

Q: What about the Activity (PC-3 [10]) of the same compound?
A: inactive

Q: What about the Activity (MCF7 [11]) of the same compound?
A: inactive
